Assays:
Type in all cases: functional
[1] = tested on: P388; assay: In vivo antitumor activity against mouse P388 cells at 4 mg/kg relative to control
[2] = tested on: P388; assay: In vivo antitumor activity against mouse P388 cells at 2 mg/kg relative to control
[3] = tested on: P388; assay: In vivo antitumor activity against mouse P388 cells at 9 mg/kg relative to control
[4] = tested on: P388; assay: In vivo antitumor activity against mouse P388 cells at 0.5 mg/kg relative to control

CC1=CC(=O)[C@@H](O)[C@]2(C)[C@H]3[C@]4(O)OC[C@]35[C@H]([C@@H](C)[C@H]4O)[C@@H](OC(=O)CC(C)(C)O)C(=O)O[C@@H]5C[C@@H]12 [SOULARUBINONE] showed a T/C [1] of 137%.
CCC(C)C(=O)O[C@H]1C(=O)O[C@@H]2C[C@H]3C(C)=CC(=O)[C@@H](O)[C@]3(C)[C@H]3[C@]4(O)OC[C@]32[C@@H]1[C@@H](C)[C@H]4O (some centres undefined) [AILANTHINONE] showed a T/C [2] of 148%.
In the case of CC(=O)O[C@H]1C(=O)O[C@@H]2C[C@H]3C(C)=CC(=O)[C@@H](O)[C@]3(C)[C@H]3[C@]4(O)OC[C@]32[C@@H]1[C@@H](C)[C@H]4O [HOLACANTHONE], the T/C [3] is reported as 159%.
In the case of CC[C@](C)(O)C(=O)O[C@H]1C(=O)O[C@@H]2C[C@H]3C(C)=CC(=O)[C@@H](O)[C@]3(C)[C@H]3[C@@]4(O)OC[C@]32[C@@H]1[C@@H](C)[C@H]4O [GLAUCARUBINONE], the T/C [4] is reported as 231%.

From ChEMBL document CHEMBL1151361, “Soularubinone, a new antileukemic quassionoid from Soulamea tomentosa” (1981)
